In brackets after ≈: the same amount, converted by molar mass. Where two headings read alike, the source gives them in different places.
Experiments:
[1] = system: CD1 mice administered 1% ethylene glycol; assay: Mouse ethylene glycol model of hyperoxaluria, urinary oxalate; type: in vivo; conditions: mice, once-daily oral gavage, 100 mg/kg
Protocol: Mouse Models of Hyperoxaluria for Determining In Vivo Efficacy of hGOX Inhibitors
Male CD1 mice, 6-8 weeks of age (Charles River Labs, Wilmington, Mass.) were administered 1% ethylene glycol ad libitum their drinking water for 14 days. The mice were housed in individual cages, fed ad libitum and 24-h urine collections were initiated on days 1, 5, 9 and 14 using a 15-rack metabolic cage system equipped with a CCS2000 chiller system (Hatteras Instruments, Cary, N.C.) to maintain the samples at 4° C. during collection. Hydrochloric acid (100 μL of 6N) added to the collection vials to acidify the samples and prevent degradation of oxalate before evaluation.
Urine samples were maintained at 4° C. and urinary oxalate concentrations were determined within 24 hours of sample collection using a Trinity Biotech oxalate assay kit (Catalog #591-D). The assay was an enzymatic method based on the oxidation of oxalate by oxalate oxidase followed by measurement of hydrogen peroxide (H2O2) produced during the peroxidase-catalyzed reaction. Briefly, a 1-mL aliquot of each sample was diluted with an equal volume of assay diluent to bring the pH to between 5.0 and 7.0, then placed into purifier tubes (provided in the kit) and mixed for 5 min. The tubes were centrifuged for 5 min at 2000 rpm (1500×g) and the supernatants collected for the oxalate assay. The procedure was specific for oxalate with no special equipment and was easily adaptable for clinical automated analyzers. Each assay included a standard curve prepared with a standardized oxalate control sample (included in the kit) and internal assay control samples for both a normal (0.2-0.3 mmol/L) and elevated (0.86-1.21 mmol/L) level of oxalate.
To evaluate in vivo efficacy, mice were dosed by once-daily oral gavage of compound I-002 in an appropriate vehicle (e.g., phosphate-buffered saline, pH 7.4) at a dosage of 100 mg/kg. […]
The effect of example I-001 in the ethylene glycol model using CD-1 mice was evaluated by twice-daily, oral gavage dosing at 50 mg/kg for 6 days (days 5-11). […]

[2] = Metabolic stability in human liver microsomal preparation; type: in vitro ADME; conditions: human liver microsomes, NADPH, 37° C.; for CLint scaled at 1 μM / half-life at 1 μM: pH 7.4; for half-life at 1 μM: read-out: Metabolic Stability t1/2
Method in brief: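 Compound at 1.5 μM with 0.75 mg/mL human liver microsomes (concentrations before NADPH addition) in 0.1 M potassium phosphate, 1 mM EDTA, pH 7.4 was preincubated 5 min at 37 °C, then started with NADPH. Samples at 0, 5, 15, 30 and 45 min were quenched with acetonitrile/internal standard and analysed by LC/MS.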

[3] = Protein binding (plasma equilibrium dialysis); type: in vitro ADME; conditions: 5 hours at 37° C.; for fraction unbound at 5 h, 1 μM: read-out: Protein Binding Fraction Bound (converted)
Method in brief: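 Compound spiked into plasma at 1 μM final (0.2% DMSO) and dialysed against phosphate buffer for 5 hours at 37 °C with shaking. Donor and receiver samples, matrix-matched and acetonitrile-quenched with internal standard, quantified by LC/MS/MS alongside 0-hour plasma samples.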

[4] = Solubility in aqueous solution (deionized, distilled water); type: physicochemical; conditions: 1% DMSO, read-out: Aqueous Solubility H2O
Method in brief: (§1)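 DMSO stock (10 mM) diluted into 100 mM phosphate buffer pH 7.4, or into deionized distilled water for the aqueous assay, at 1% final DMSO and shaken 1 h at room temperature. After centrifugation, supernatants quantified by LC-MS/MS against a calibration curve with internal standard.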

[5] = Stability in human plasma; type: in vitro ADME; conditions: for half-life at 2 μM: read-out: Plasma Stability T1/2
Method in brief: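 Pooled human plasma (pH 7.4-8) at 37° C, test compound spiked from a 0.02 mM solution in phosphate buffer with 0.5% BSA. Samples taken at 0, 5, 15, 30, 45 and 60 min, quenched with acetonitrile containing internal standard, and remaining compound measured by LC/MS.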

[6] = Solubility in phosphate buffered saline (PBS), pH 7.4; type: physicochemical; conditions: phosphate buffered saline pH 7.4, 1% DMSO, 1 hour shaking at room temperature
Method in brief: as §1

[7] = target: glycolate oxidase (GOX) in HepaRG-CAR cells (Homo sapiens (Human), UniProt Q9UJM8); assay: HepaRG-CAR cell-based assay for quantitation of glycolate oxidase inhibition (cellular glycolate flux, GC-MS); conditions: HepaRG-CAR cells, 500 μM glycolate, 48 hours incubation; read-out: IC50
Sequence of glycolate oxidase (GOX) in HepaRG-CAR cells (Q9UJM8 whole entry): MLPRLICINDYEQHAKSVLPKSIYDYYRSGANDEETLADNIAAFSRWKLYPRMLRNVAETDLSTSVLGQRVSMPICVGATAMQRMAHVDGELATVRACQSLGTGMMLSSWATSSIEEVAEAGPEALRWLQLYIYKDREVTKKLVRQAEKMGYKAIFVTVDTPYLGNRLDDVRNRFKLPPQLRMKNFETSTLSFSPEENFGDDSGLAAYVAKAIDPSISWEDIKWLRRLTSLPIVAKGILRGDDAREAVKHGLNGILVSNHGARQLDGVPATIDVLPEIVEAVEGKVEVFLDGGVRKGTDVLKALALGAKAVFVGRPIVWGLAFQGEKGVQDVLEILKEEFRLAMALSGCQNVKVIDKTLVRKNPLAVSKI

[8] = target: recombinant full-length human hydroxyacid oxidase 1 (HAO1), the equivalent of hGOX (Homo sapiens (Human), UniProt Q9UJM8); assay: In-vitro human glycolate oxidase (hGOX) assay (Amplex red/HRP fluorescence); type: biochemical
Sequence of recombinant full-length human hydroxyacid oxidase 1 (HAO1), the equivalent of hGOX (Q9UJM8 whole entry): as above
Protocol: Biological Activity Assay: In-Vitro Human Glycolate Oxidase (hGOX) Assay
The in-vitro glycolate oxidase assay was performed using recombinant full-length human hydroxyacid oxidase 1 (HAO1), the equivalent of hGOX. […] Purified HAO1 was dissolved in assay buffer consisting of 10 mM NaCl, 110 mM KCl, 2 mM MgCl2, 50 mM HEPES (pH 7.4) and 0.01% Triton™ X-100.

[9] = phosphate buffer (PBS), aqueous buffer, kinetic from dmso stock

Compound | reduction in urinary oxalate [1] | CLint scaled at 1 μM [2] | half-life at 1 μM ([2]; 0-45 min) | recovery at 5 h, 1 μM [3] | fraction unbound at 5 h, 1 μM [3] | solubility at 1 h ([4]; kinetic from dmso stock) | half-life at 2 μM [5] | solubility at 1 h [6, 9] | IC50 [7] | IC50 [8] | Metabolic Stability Clint [2] | Metabolic Stability t1/2 ([2]; 0-45 min) | Protein Binding Recovery ([3]; 1 μM) | solubility at 1 h [4] | Plasma Stability T1/2 [5] | solubility at 1 h ([6]; read-out: Aqueous Solubility PBS) | IC50 ([8]; 12.5 nM HAO1, 85 μM glycolate, 2.5% DMSO, read-out: IC50)
CCOC(=O)c1nn[nH]c1Sc1ccc(Cl)cc1 [Example I-002, Ethyl 5-((4-chlorophenyl)thio)-1H-1,2,3-triazole-4-carboxylate] | statistically significant reduction | – | – | – | – | – | – | – | – | – | – | – | – | – | – | – | –
O=C(O)c1nn[nH]c1Oc1cccc(-c2ccncc2)c1 [Example I-260, 5-(3-(Pyridin-4-yl)phenoxy)-1H-1,2,3-triazole-4-carboxylic acid] | – | 2.81 mL/min/kg | 10.3 h | 114% | 0.047 | 94.4 µM (≈ 26.6 µg/mL) | 1.79 h | 100 µM (≈ 28.4 µg/mL) | 2500 nM | 21 nM | – | – | – | – | – | – | –
O=C(O)c1nn[nH]c1Oc1ccc(-c2ccccc2)nc1 [Example I-263, 5-((6-Phenylpyridin-3-yl)oxy)-1H-1,2,3-triazole-4-carboxylic acid] | – | 2.48 mL/min/kg | 11.7 h | 111% | 0.014 | 99 µM (≈ 27.9 µg/mL) | 1.51 h | 106 µM (≈ 29.9 µg/mL) | > 10000 nM | 141 nM | – | – | – | – | – | – | –
O=C(O)c1nn[nH]c1Oc1ccc(-c2ccccn2)cc1 [Example I-261, 5-(4-(Pyridin-2-yl)phenoxy)-1H-1,2,3-triazole-4-carboxylic acid] | – | – | – | – | – | – | – | – | > 10000 nM | – | 1.58 mL/min/kg | 18.301 h | 111.0% | 105 µM (≈ 29.6 µg/mL) | 1.328 h | 101.5 µM (≈ 28.6 µg/mL) | 150 nM
